# Results published in US20010044151A1, “Ligands for modulating the expression of exogenous genes via an ecdysone receptor complex” (priority 1998, published 2001).
# Biological target: T1, VgEcR and RXR heterodimeric receptor (pVgRXR) with pIND/LacZ(SPI) in CHO cells (Drosophila melanogaster, UniProt P34021, E282G/G283S/G286V)
# T1 construct: host or cells: CHO cells (ATCC CCL-61), transiently transfected or stably transformed with pVgRXR
# T1 sequence (P34021 1-878 E282G/G283S/G286V): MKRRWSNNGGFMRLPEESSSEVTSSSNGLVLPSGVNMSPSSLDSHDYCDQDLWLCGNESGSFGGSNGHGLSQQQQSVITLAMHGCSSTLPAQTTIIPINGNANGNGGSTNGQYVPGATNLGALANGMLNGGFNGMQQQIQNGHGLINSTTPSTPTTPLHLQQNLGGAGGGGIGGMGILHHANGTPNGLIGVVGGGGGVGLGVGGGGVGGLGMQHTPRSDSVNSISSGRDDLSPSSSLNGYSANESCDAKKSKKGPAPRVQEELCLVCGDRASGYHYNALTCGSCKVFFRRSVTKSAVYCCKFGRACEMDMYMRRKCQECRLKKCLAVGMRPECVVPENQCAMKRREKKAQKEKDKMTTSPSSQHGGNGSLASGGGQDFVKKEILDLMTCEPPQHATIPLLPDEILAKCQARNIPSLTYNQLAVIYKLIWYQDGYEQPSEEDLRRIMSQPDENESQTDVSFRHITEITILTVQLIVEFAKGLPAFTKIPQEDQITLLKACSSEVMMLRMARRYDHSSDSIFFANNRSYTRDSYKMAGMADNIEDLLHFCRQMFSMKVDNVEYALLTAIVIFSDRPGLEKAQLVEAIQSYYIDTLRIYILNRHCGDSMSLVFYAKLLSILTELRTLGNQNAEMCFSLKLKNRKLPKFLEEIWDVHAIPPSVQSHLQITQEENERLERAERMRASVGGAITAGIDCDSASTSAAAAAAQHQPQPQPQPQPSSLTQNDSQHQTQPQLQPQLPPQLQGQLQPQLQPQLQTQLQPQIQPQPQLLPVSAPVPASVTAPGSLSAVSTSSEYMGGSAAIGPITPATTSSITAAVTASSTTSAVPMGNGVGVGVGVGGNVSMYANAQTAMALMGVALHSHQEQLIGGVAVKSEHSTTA
# T1 sequence (P19793 1-462 partner): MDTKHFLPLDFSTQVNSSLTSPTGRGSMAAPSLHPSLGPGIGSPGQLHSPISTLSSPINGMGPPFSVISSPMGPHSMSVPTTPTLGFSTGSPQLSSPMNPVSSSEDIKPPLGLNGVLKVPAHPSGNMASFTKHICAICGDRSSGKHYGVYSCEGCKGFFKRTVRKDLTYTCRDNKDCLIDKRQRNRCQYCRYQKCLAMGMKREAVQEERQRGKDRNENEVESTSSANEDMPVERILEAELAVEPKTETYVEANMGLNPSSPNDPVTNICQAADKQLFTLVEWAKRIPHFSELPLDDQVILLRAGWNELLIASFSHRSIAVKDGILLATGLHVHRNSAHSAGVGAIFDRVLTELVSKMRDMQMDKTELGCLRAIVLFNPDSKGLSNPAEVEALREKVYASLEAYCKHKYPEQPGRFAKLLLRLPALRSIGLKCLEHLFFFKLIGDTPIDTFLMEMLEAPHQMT
# Experiment: β-Galactosidase gene activation in stably transformed CHO cells
# Assay type: cell-based
# Settings: ligand 10 μM; for β-Galactosidase activity: average of triplicate samples, no ligand = 200; for Induction Ratio (RLU in presence and absence of the ligand): β-galactosidase
# From the text: pVgRXR (Invitrogen Corp., Carlsbad, Calif.) is an […] plasmid that expresses both VgEcR and RXR to form a modified heterodimeric nuclear receptor (see No, D., et. al., (1996) Proc. Natl. Acad. Sci. USA, 93, 3346-3351). The ecdysone receptor (VgEcR) is derived from the natural Drosophila ecdysone receptor and modified to contain the VP16 transactivation domain (see Cress, W. D., and Triezenberg, S. J. (1991), Science 251, 87-90; Sadowski, I., et. al (1988) Nature 335, 563-564; Triezenberg, S. J et. al., (1988), Genes Dev 2, 718-729; Triezenberg, S. J., et. al., (1988), Genes Dev 2, 730-742). RXR as the mammalian homologue of USP (ultraspiracle), the natural partner to the Drosophila ecdysone receptor (see Yao, T. -P., et. al., (1993), Nature 366, 476-479, Yao, T. -P., et. al., (1992), Cell 71, 63-72). The P-box region of the VgEcR DNA binding domain was modified to recognize the hybrid ecdysone response element that consists of one half-site from the gluccorticoid response element (see Umesono, K., and Evans, R. M. (1989), Cell 57, 1139-1146) and one half-site from the natural ecdysone response element. This hybrid response element reduces any possible interaction with the farsenoid X receptor that may bind the natural ecdysone responsive element (EcRE). The cytomegalovirus enhancer-promoter drives expression of VgEcR, and the Rous sarcoma virus promoter drives expression of RXR. The vector pIND (Invitrogen Corp) is a 5024 bp vector based on pcDNA3.1. It contains five hybrid E/GREs recognized by the modified ecdysone receptor expressed from pVgRXR and a minimal heat shock promoter (see Yao, T. P., et. al., (1993), Nature, 366, 476-479). pIND/lacZ (Invitrogen Crop.) is a 8170 bp plasmid that contains the β-galactosidase gene as a reporter enzyme. Cotransfection of pIND/lacZ and pVgRXR results in the induction of β-galactosidase expression upon addition of ecdysone agonists such as muristerone A. The reporter plasmid pIND/luc was constructed by subcloning the firefly luciferase gene from pGL3 (Promega/E1741) as a Nhe I-BamHI fragment into pIND, also digested with Nhe I and BamHI.
# CHO cells stably transformed with pVgRXR and pIND/LacZ(SPI) (Invitrogen Crop.) were maintained in Hams F-12 media containing 10% FBS, 2 mM glutamine, 300 μg/ml Zeocin (Invitrogen Crop.) and 300 μg/ml Hygromycin B. pIND(SPI), an alternative to the pIND vector, can be induced to absolute expression levels five-fold greater than that of pIND due to the presence of 3 cis-acting SPI elements. Basal expression levels are correspondingly greater.
# Stock solutions (10^−2 M) were prepared for muristerone A and the non-steroidal ligands of the present invention in ethanol and acetone respectively, and stored at −20° C. Twenty-four hours after transfection, a test compound was added at a final concentration of 10 μM (10^−5 M) to each 1 ml cell culture well. Muristerone A (Sigma, M7888) at 10 μM concentration was used as a positive control. Acetone alone was added as a negative control.
# Reporter gene expression was evaluated 24-48 hours after treatment of transiently transfected cells or 24 hours after treatment of the stably transformed cell line with test ligands. β-galactosidase was assayed by either staining fixed cells or assaying for enzymatic activity in cellular lysates. β-galactosidase catalyzes the hydrolysis of the β-galactoside, X-gal (5-bromo-4-chloro-3-indolyl-β-galactopyranoside) producing a blue color within the fixed cells (Invitrogen, K1465-01) that can be visualized under a microscope. Alternatively, reporter lysis buffer (RLB; Promega/E397A) was used to lyse the cells for the detection of β-galactosidase activity using a chemiluminescent substrate, Galacto-Star (Tropix/BM100S). The cells within each 12-well plate were lysed with 250 μl of RLB. Twenty μl of each extract was assayed with 100 μl of substrate. […]
SMILES,β-Galactosidase activity [RLU],Induction Ratio (RLU in presence and absence of the ligand)
CCc1c(OC)cccc1C(=O)NN(C(=O)c1cc(C)cc(C)c1)C(C)(C)C [Ligand 5],11599,58
Cc1cc(C)cc(C(=O)N(NC(=O)c2ccc3c(c2C)OCCO3)C(C)(C)C)c1 [Ligand 2],536,3
"CC(C)CC[C@@H](O)[C@](C)(O)[C@H]1CC[C@@]2(O)C3=CC(=O)[C@]4(O)C[C@@H](O)[C@@H](O)C[C@]4(C)[C@H]3[C@H](O)C[C@]12C [CE-3, muristerone A, reference compound]",9830,49
CCc1c(OC)cccc1C(=O)NN(C(=O)c1cc(F)cc(F)c1)C(C)(C)C [Ligand 4],1963,10
COc1cccc(C(=O)NN(C(=O)c2cc(C)cc(C)c2)C(C)(C)C)c1C [Ligand 3],681,3
CCc1c(OC)cccc1C(=O)NN(C(=O)c1cccc(OC)c1)C(C)(C)C [Ligand 1],1123,6
"CCc1ccc(C(=O)NN(C(=O)c2cc(C)cc(C)c2)C(C)(C)C)cc1 [CE-1, N-(4-ethylbenzoyl)-N′-(3,5-dimethylbenzoyl)-N′-tert-butyl-hydrazine, reference compound]",323,2
CCOc1cccc(C(=O)NN(C(=O)c2cc(C)cc(C)c2)C(C)(C)C)c1CC [Ligand 12],9830,49
"CC(C)(C)N(NC(=O)c1ccccc1)C(=O)c1ccccc1 [CE-2, 1,2-dibenzoyl-1-tert-butyl-hydrazine, reference compound]",145,1
CCc1c(OC)cccc1C(=O)NN(C(=O)c1cc(Cl)cc(Cl)c1)C(C)(C)C [Ligand 13],6667,33
"CC(C)CC[C@@H](O)[C@](C)(O)[C@H]1CC[C@@]2(O)C3=CC(=O)[C@@H]4C[C@@H](O)[C@@H](O)C[C@]4(C)[C@H]3CC[C@]12C [CE-4, ponasterone A, reference compound]",10386,52
